In patent US20240245694A1, “Tricyclic Compounds and their Uses” (Novartis AG, priority 2022, published 2024):

Key:
[1] = biological target: WRN helicase (core helicase motif aa N517-P1238) (Homo sapiens (Human), UniProt Q14191); assay: WRN ATPase assay (ADP-Glo), DNA dependent ATP hydrolysis; assay type: biochemical; settings: 3 hours pre-incubation, 300 micromolar ATP, FLAP26 ssDNA; geometric means of at least 2 determinations
Text: An ATPase assay was set up to measure the DNA dependent ATP hydrolysis activity of WRN helicase. This assay was used also to assess the inhibition properties of compounds of the invention on DNA dependent WRN ATPase activity.
The core helicase motif of the WRN protein (aa N517-P1238) was produced for this assay (protein production as described above). A 45 oligonucleotide sequence called “FLAP26” as described by Brosh et al., 2009, DOI: 10.1074/jbc.M111446200 ([…]; SEQ ID NO: 2) was purchased from IDT (Integrated DNA Technologies, Leuven, Belgium) and used as single strand DNA substrate. The ADP-Glo assay kit (Promega, Madison, WI) allowing the quantification of ADP produced in ATP hydrolysis reactions was used for setting up this assay. Time course experiments were first performed in order to determine the best enzymatic assay conditions (including buffer conditions, reaction time and concentrations of protein, ATP and DNA substrates). A typical reaction consists of 10 nM WRN protein, 0.2 nM FLAP26, and 300 micromolar ATP in the following assay buffer: 30 mM Tris pH7.5, 2 mM MgCl2, 0.02% BSA, 50 mM NaCl, 0.1% pluronic F127 prepared in DNAse free water.
To evaluate the inhibition properties of compounds of the invention, serial dilutions were prepared in DMSO (10 half log dilutions from a 10 mM DMSO solution). 50 nanoliters of each concentration was pre-incubated for 3 hours in a 384 small volume assay plate (Greiner #784075) with 2.5 microliters of a 20 nM WRN helicase protein in assay buffer with 600 micromolar ATP. Control wells were included with a “high control” (no inhibition), containing DMSO with no test compound, and “low controls” (maximal inhibition), containing buffer without protein. The reaction was started by addition of 2.5 microliters of FLAP26 at 0.4 nM and incubated for 30 minutes at room temperature. The reaction was stopped with the addition of 5 microliters of the first ADP-Glo reagent and incubated for one hour to remove the excess amount of ATP. Afterwards, 10 microliters of ATP detection reagent was added and incubated for an additional hour before reading. Luminescence output was recorded using Tecan 1000 reader, with 5 minutes delay before reading. Each concentration of compound was tested in duplicates in the assay plate.
Data analysis was carried out using an in-house developed software (Novartis Helios software application, Novartis Institutes for BioMedical Research, unpublished) using the methods described by Formenko et al., 2006, DOI: 10.1016/j.cmpb.2006.01.008. Following normalization of activity values for the wells to % inhibition (% inhibition=[(high control-sample)/(high control-low control)]×100), IC50 fitting was carried out from the duplicate determinations present on each plate according to [4]. Data analysis can also be carried out using commercially available software designed to derive IC50 values using 4-parameter fits (e.g. GraphPad Prism, XL fit). The reported IC50 values are the geometrical means of at least 2 independent replicates.

[2] = tested on: SW48 cells; assay: Proliferation assay SW48 (CellTiterGlo, 96 hours); assay type: cell-based; settings: Homo sapiens
Text: (§1) The colon carcinoma cell lines SW48 (RRID: CVCL_1724), HCT 116 (RRID: CVCL_0291) and SNU-407 (RRID: CVCL_5058) were obtained from ATCC. The WRN-knockdown insensitive colon carcinoma cell line DLD-1 (RRID: CVCL_0248) was obtained from the Korean Cell Line Bank (KCLB), and used to generate a derivative in which the endogenous WRN gene copies were knocked out by CRISPR-mediated editing using standard CRISPR methods. The resulting cell line, DLD1-WRN-KO, was used to assess potential off-target compound effects.
(§2) SW48, SNU-407 and DLD1-WRN-KO cells were cultured in growth medium composed of RPMI-1640 (Amimed Cat #1-41F22-1), 2 mM L-Glutamine (Amimed Cat #5-10K50), 10 mM HEPES (Gibco Cat #15630-056), 1 mM sodium pyruvate (Amimed Cat #5-60F00-H), 1× Penicillin-Streptomycin (Amimed Cat #4-01F00-H) and 10% fetal calf serum (Amimed Cat #2-01F30-G, Lot #LB11566P). HCT 116 cells were cultured in growth medium composed of McCoys 5A (Amimed catalog #1-18F01-1), 2 mM L-Glutamine (Amimed Cat #5-10K50), 1× Penicillin-Streptomycin (Amimed Cat #4-01F00-H) and 10% fetal calf serum (Amimed Cat #2-01F30-G, Lot #LB11566P). All cells were maintained at 37° C. in a humidified 5% CO2 incubator.
(§3) Following filtration through a Steriflip-NY 20 μm filter (Millipore Cat #SCNY00020), trypsinized cells were seeded in 100 microliters growth medium at 2′000 (SW48) or 1′500 (SNU-407, DLD1-WRN-KO, HCT 116) cells/well into white, clear-bottom 96-well plates (Costar Cat #3903). Three replicate plates were prepared for each compound treatment condition. In addition, one plate (termed “day 0”) was prepared to quantify the number of viable cells at the time of compound addition. Following overnight incubation at 37° C. in a humidified 5% CO2 atmosphere, eight 3-fold serial dilutions of a given compound stock (obtained at a concentration of 10 mM in DMSO and stored at 4° C.) were dispensed directly into each of the triplicate assay plates using a HP 300D non-contact Digital Dispenser (TECAN). The final concentration of DMSO was normalized to 0.1% in all wells. 96 hours after compound addition, cellular ATP levels as a surrogate for cell viability was assessed following addition of 50 microliters CellTiterGlo (Promega Cat #G7573) reagent and luminescence quantification on a MPLEX multi-mode plate-reader (TECAN) following a 10 minute incubation at room temperature. The number of viable cells in the “day 0” plate were quantified identically on the day of compound addition.
(§4) For data analysis, the assay background signal that was determined in wells containing medium, but no cells, was subtracted from all other data points prior to further calculations. The extent of growth inhibition and potential cell kill was assessed by comparing the ATP levels (measured using CellTiterGlo, Promega) in compound-treated cells with those present at the time of compound addition. To this end, the following conditional concept was programmatically applied in HELIOS, an in-house software applying a multi-step decision tree to arrive at optimal concentration response curve fits (Gubler et al, SLAS DOI: 10.1177/2472555217752140) to calculate % growth (% G) for each compound-treated well: % G=(T−V0)/V0))*100 when T<V0, and % G=(T−V0)/(V−V0)))*100 when T>V0, where V0 is the viability level at time of compound addition, while V and T represent vehicle-control and compound-treated viability levels, respectively, at the end of the compound incubation. 100%, 0% and −100% signify absence of growth inhibition, growth stasis, and complete cell kill, respectively. Compound concentrations leading to half-maximal growth inhibition (G150) and residual cell viability at the highest tested compound concentration (Data (cmax), expressed in percent) were routinely calculated. Data analysis can also be carried out using commercially available software designed to derive IC50 values using 4-parameter fits (e.g. GraphPad Prism, XL fit). […]

[3] = tested on: DLD1-WRN-KO cells; assay: Proliferation assay DLD1-WRN-KO (CellTiterGlo, 96 hours), off-target effects; assay type: cell-based; settings: Homo sapiens
Text: as §1, §2, §3, §4

WRN helicase (core helicase motif aa N517-P1238), sequence (Q14191 517-1238): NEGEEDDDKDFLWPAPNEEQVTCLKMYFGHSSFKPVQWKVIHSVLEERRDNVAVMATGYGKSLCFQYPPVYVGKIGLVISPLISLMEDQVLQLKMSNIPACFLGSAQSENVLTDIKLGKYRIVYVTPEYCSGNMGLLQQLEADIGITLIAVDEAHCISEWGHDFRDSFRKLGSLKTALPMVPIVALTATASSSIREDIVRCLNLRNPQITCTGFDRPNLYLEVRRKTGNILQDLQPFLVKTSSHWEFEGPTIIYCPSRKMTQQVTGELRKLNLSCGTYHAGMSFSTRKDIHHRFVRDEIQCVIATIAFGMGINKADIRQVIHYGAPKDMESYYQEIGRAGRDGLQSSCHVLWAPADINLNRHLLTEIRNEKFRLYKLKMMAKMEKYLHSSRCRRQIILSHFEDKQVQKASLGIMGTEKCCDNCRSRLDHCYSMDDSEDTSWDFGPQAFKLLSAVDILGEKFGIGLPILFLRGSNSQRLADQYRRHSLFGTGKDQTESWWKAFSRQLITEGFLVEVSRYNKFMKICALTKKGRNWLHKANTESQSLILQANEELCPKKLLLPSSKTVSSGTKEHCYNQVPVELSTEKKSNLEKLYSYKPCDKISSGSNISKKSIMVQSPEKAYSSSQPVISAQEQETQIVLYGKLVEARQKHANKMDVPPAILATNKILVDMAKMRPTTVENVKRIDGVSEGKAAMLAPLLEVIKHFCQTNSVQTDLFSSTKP

Compound | IC50 [1] | GI50 [2] | GI50 [3]
Cc1ncnc(C(=O)N2CCN(c3c4n(c5nc(N6CCOCC6)nn5c3=O)[C@H](C(=O)Nc3ccc(C(F)(F)F)cc3Cl)C[C@H]4C)CC2)c1O [Example 2D, (7R,9S)—N-(2-chloro-4-(trifluoromethyl)phenyl)-6-(4-(5-hydroxy-6-methylpyrimidine-4-carbonyl)piperazin-1-yl)-7-methyl-2-morpholino-5-oxo-5,7,8,9-tetrahydropyrrolo[1,2-c][1,2,4]triazolo[1,5-a]pyrimidine-9-carboxamide] | 24 µM | > 10 µM | > 10 µM
Cc1ncnc(C(=O)N2CCN(c3c4n(c5nc(C6=CCOCC6)nn5c3=O)[C@H](C(=O)Nc3ccc(C(F)(F)F)cc3Cl)C[C@@H]4C)C[C@H]2C)c1O [Example 18B, (7S,9S)—N-(2-chloro-4-(trifluoromethyl)phenyl)-2-(3,6-dihydro-2H-pyran-4-yl)-6-((R)-4-(5-hydroxy-6-methylpyrimidine-4-carbonyl)-3-methylpiperazin-1-yl)-7-methyl-5-oxo-5,7,8,9-tetrahydropyrrolo[1,2-c][1,2,4]triazolo[1,5-a]pyrimidine-9-carboxamide] | 36 µM | > 10 µM | > 10 µM
Cc1ncnc(C(=O)N2CCN(c3c4n(c5nc(C6=CCOCC6)nn5c3=O)[C@H](C(=O)Nc3ccc(C(F)(F)F)nc3Cl)C[C@@H]4C)CC2)c1O [Example 4B, (7S,9S)—N-(2-chloro-6-(trifluoromethyl)pyridin-3-yl)-2-(3,6-dihydro-2H-pyran-4-yl)-6-(4-(5-hydroxy-6-methylpyrimidine-4-carbonyl)piperazin-1-yl)-7-methyl-5-oxo-5,7,8,9-tetrahydropyrrolo[1,2-c][1,2,4]triazolo[1,5-a]pyrimidine-9-carboxamide] | 9 µM | 6 µM | > 10 µM
Cc1ncnc(C(=O)N2CCN(c3c4n(c5nc(C6=CCOCC6)nn5c3=O)[C@@H](C(=O)Nc3ccc(C(F)(F)F)nc3Cl)C[C@H]4C)CC2)c1O [Example 4A, (7R,9R)—N-(2-chloro-6-(trifluoromethyl)pyridin-3-yl)-2-(3,6-dihydro-2H-pyran-4-yl)-6-(4-(5-hydroxy-6-methylpyrimidine-4-carbonyl)piperazin-1-yl)-7-methyl-5-oxo-5,7,8,9-tetrahydropyrrolo[1,2-c][1,2,4]triazolo[1,5-a]pyrimidine-9-carboxamide] | 0.09 µM | 0.1 µM | > 10 µM
O=C(Nc1ccc(C(F)(F)F)cc1)[C@@H]1CCc2c(N3CCN(C(=O)c4ncccc4O)CC3)c(=O)n3nc(C4=CCOCC4)nc3n21 [Example 23B, (S)-2-(3,6-dihydro-2H-pyran-4-yl)-6-(4-(3-hydroxypicolinoyl)piperazin-1-yl)-5-oxo-N-(4-(trifluoromethyl)phenyl)-5,7,8,9-tetrahydropyrrolo[1,2-c][1,2,4]triazolo[1,5-a]pyrimidine-9-carboxamide] | 69 µM | > 10 µM | > 10 µM

Continued, values first:

IC50 [1] | GI50 [2] | GI50 [3] | Compound
0.02 µM | 0.02 µM | > 10 µM | C[C@@H]1C[C@H](C(=O)Nc2ccc(C(F)(F)F)cc2Cl)n2c1c(N1CCN(C(=O)c3nccc(F)c3O)CC1)c(=O)n1nc(C3=CCOCC3)nc21 [Example 6A, (7R,9R)—N-(2-chloro-4-(trifluoromethyl)phenyl)-2-(3,6-dihydro-2H-pyran-4-yl)-6-(4-(4-fluoro-3-hydroxypicolinoyl)piperazin-1-yl)-7-methyl-5-oxo-5,7,8,9-tetrahydropyrrolo[1,2-c][1,2,4]triazolo[1,5-a]pyrimidine-9-carboxamide]
0.04 µM | 0.2 µM | > 10 µM | Cc1cc(C(F)(F)F)ccc1NC(=O)[C@H]1CCc2c(N3CCN(C(=O)c4nccc(Cl)c4O)CC3)c(=O)n3nc(C4=CCOCC4)nc3n21 [Example 19A, (R)-6-(4-(4-chloro-3-hydroxypicolinoyl)piperazin-1-yl)-2-(3,6-dihydro-2H-pyran-4-yl)-N-(2-methyl-4-(trifluoromethyl)phenyl)-5-oxo-5,7,8,9-tetrahydropyrrolo[1,2-c][1,2,4]triazolo[1,5-a]pyrimidine-9-carboxamide]
0.02 µM | 0.02 µM | > 10 µM | Cc1cc(F)c(O)c(C(=O)N2CCN(c3c4n(c5nc(C6=CCOCC6)nn5c3=O)[C@@H](C(=O)Nc3ccc(C(F)(F)F)cc3Cl)C[C@H]4C)CC2)n1 [Example 8, (7R,9R)—N-(2-chloro-4-(trifluoromethyl)phenyl)-2-(3,6-dihydro-2H-pyran-4-yl)-6-(4-(4-fluoro-3-hydroxy-6-methylpicolinoyl)piperazin-1-yl)-7-methyl-5-oxo-5,7,8,9-tetrahydropyrrolo[1,2-c][1,2,4]triazolo[1,5-a]pyrimidine-9-carboxamide]
0.1 µM | 0.4 µM | > 10 µM | Cc1cc(C(F)(F)F)ccc1NC(=O)[C@H]1C[C@H](C)c2c(N3CCN(C(=O)c4ncccc4O)CC3)c(=O)n3nc(C4=CCOCC4)nc3n21 [Example 15C, (7S,9R)-2-(3,6-dihydro-2H-pyran-4-yl)-6-(4-(3-hydroxypicolinoyl)piperazin-1-yl)-7-methyl-N-(2-methyl-4-(trifluoromethyl)phenyl)-5-oxo-5,7,8,9-tetrahydropyrrolo[1,2-c][1,2,4]triazolo[1,5-a]pyrimidine-9-carboxamide]
